In assay [1] the target is T1, Adrenergic receptor alpha-2 (Rattus norvegicus) (UniProt P22086+P19328+P22909). As to the kind of experiment: In vitro agonist activity against alpha-2A adrenergic receptor in rat vas deferens. In kind it is functional, tissue-based.
Assay [2] concerns the target T2, Adrenergic receptor alpha-1 (Rattus norvegicus) (UniProt P15823+P23944+P43140). The experiment in a line: In vitro agonist activity against alpha-1 adrenergic receptor in rat anococcygeus. Type of assay: functional.
Assay [3] deals with T2, Adrenergic receptor alpha-1 (Rattus norvegicus). The experiment in a line: In vitro antagonistic activity against alpha-1 adrenergic receptor in rat anococcygeus; Ag means compound was agonist. Type of assay: functional. The note with it: filed as agonist.
Assay [4] deals with T1, Adrenergic receptor alpha-2 (Rattus norvegicus). The experiment in a line: In vitro antagonistic activity against alpha-2A adrenergic receptor in rat vas deferens; Ag means compound was agonist. Type of assay: functional. The note with it: filed as agonist.
The target is the same in assay [5]. As to the kind of experiment: Antagonistic potency towards alpha-2 adrenergic receptor was determined by observing twich response of rat vas deferens after i.v. administration. In kind it is functional, organism-based.
The species named for assay [6] is Rattus norvegicus. The experiment in a line: Antagonist activity against guanoxabenz-induced mydriasis in rat when given […]. In kind it is functional.
Assay [7] concerns Rattus norvegicus. The experiment in a line: Effective dose of the compound required to inhibit electrically evoked contractions of rat vas deferens after i.v. administration. In kind it is functional. To be noted: iv.
For assay [8], the species on record is Rattus norvegicus. The experiment in a line: Maximum percent inhibition electrically evoked contractions of rat vas deferens by the compound was determined as test for its agonistic activity. Type of assay: functional.
Assay [9] is filed under the species Rattus norvegicus. As to the kind of experiment: Antagonist potency for alpha 2 adrenoceptor. Type of assay: functional, organism-based. To be noted: read-out: pA2 (converted).
Assay [10] deals with T2, Adrenergic receptor alpha-1 (Rattus norvegicus). The experiment in a line: In vitro antagonistic activity against alpha-1 adrenergic receptor in rat anococcygeus. In kind it is functional.
For assay [11] the target is unchanged. As to the kind of experiment: In vitro antagonistic activity against Alpha-1 adrenergic receptor in rat anococcygeus. In kind it is functional.
For assay [12], the target named is T1, Adrenergic receptor alpha-2 (Rattus norvegicus). As to the kind of experiment: In vitro antagonistic activity against alpha-2A adrenergic receptor in rat vas deferens. In kind it is functional, tissue-based.
The target is the same in assay [13]. The experiment in a line: In vitro antagonistic activity against alpha-2 adrenoceptor in rat vas deferens. In kind it is functional, tissue-based.
The target in assay [14] is T2, Adrenergic receptor alpha-1 (Rattus norvegicus). The experiment in a line: In vitro antagonistic activity against alpha1 adrenoceptor in rat anococcygeus; Ag means compound was agonist. Type of assay: functional. The note with it: filed as agonist.
Assay [15] has the same target. As to the kind of experiment: In vitro agonist activity against alpha-1 adrenoceptor in rat anococcygeus. Type of assay: functional.
The target of assay [16] is T1, Adrenergic receptor alpha-2 (Rattus norvegicus). As to the kind of experiment: In vitro agonist activity against alpha-2 adrenoceptor in rat vas deferens. Type of assay: functional, tissue-based.
Assay [17] has the same target. The note with it: Vas deferens.
Description: Inhibitory activity against Alpha-2 adrenergic receptor in rat vas deferens
Assay [18] shares this target. The experiment in a line: In vitro antagonistic activity against alpha-2 adrenoceptor in rat vas deferens; Ag means compound was agonist. Type of assay: functional. The note with it: filed as agonist.
Assay [19] has the same target. The experiment in a line: In vitro agonist activity against Alpha-2 adrenergic receptor in rat vas deferens. Type of assay: functional, tissue-based.
For assay [20] the target is unchanged. The experiment in a line: In vitro antagonistic activity against Alpha-2 adrenergic receptor in rat vas deferens; Ag means compound was agonist. To be noted: filed as agonist. Type of assay: functional.

The record followed here is ChEMBL document CHEMBL1124536, “Heteroaromatic analogues of the alpha 2-adrenoreceptor partial agonist clonidine” (J Med Chem, 1989).

Each structure is given as a SMILES string.

Regarding `CN1CCOc2ccc(NC3=NCCN3)cc21`, the Potency was 0.025 in assay [1], 0.5 in assay [2], “Agonist” in [3] and “Agonist” in assay [4].
Broadly, the Inhibition is the share of the control response that was lost under treatment. The low end stands for a response near the control, the high end for a response far below the control. As to `CN1CCOc2cc(NC3=NCCN3)ccc21.I`, the DR2 (ug min-1 kg-1) in assay [5] was 4.62. The same compound registered an AD50 in assay [6] of 0.0589 mg/kg. The compound also registered an ED40 in assay [7] of 6.74 mg/kg. Besides, the values for the Potency in [1] and in assay [2] were 0.03 and 0.0002, respectively. The same compound showed an Inhibition in assay [8] of 65%. The Activity entry in assay [3] and in assay [4] was “Agonist” in each case.
Regarding `c1ccc2c(c1)OCC(C1=NCCN1)O2` (centres undefined) [IDAZOXAN], the DR2 (ug min-1 kg-1) in assay [5] was 2. The compound also displayed an AD50 in assay [6] of 0.02936 mg/kg. The Kb in assay [9] is 10.5 nM.
For `CC(=O)N1CCc2ccc(NC3=NCCN3)cc21`, the Potency is 0.006 in assay [1], 2e-05 in assay [10], 0 in [2] and “Agonist” in assay [4].
In assay [5], `I.O=CN1CCOc2ccc(NC3=NCCN3)cc21` returned a DR2 (ug min-1 kg-1) of 6.8. In assay [6], this compound showed an AD50 of 0.297 mg/kg. The same compound registered an ED40 in assay [7] of 0.385 mg/kg. Besides, the Potency in [1] is 0.02; in [11], 0.0006; in assay [4], “Agonist”. In addition, in assay [8], the Inhibition is 62%.
As for `CCN1CCOc2cc(NC3=NCCN3)ccc21`, the Potency in assay [1] is less than 0.01; in [2], 0.055; in assay [3], “Agonist”; in [4], “Agonist”.
Regarding `O=C1COc2ccc(NC3=NCCN3)cc2N1`, the Potency in assay [1] was 0; in assay [2], 0.002; in assay [12], 0.0005; in assay [3] it was “Agonist”.
Regarding `O=C1COc2cc(NC3=NCCN3)ccc2N1`, the Potency in [13] was 0.0013; in [14], “Agonist”; in [15], 0.006; in assay [16], 0.
With `CCN1CCc2ccc(NC3=NCCN3)cc21`, the Potency is 0 in assay [1], 0.17 in [2], 0.04 in assay [12] and “Agonist” in assay [3].
As for `Nc1cc(Cl)c(N=C2NCCN2)c(Cl)c1`, the IC40 in assay [17] was determined as 1.99 nM.
For `O=CN1CCOc2cc(NC3=NCCN3)ccc21`, the Potency entry in assay [18] is “Agonist”; in assay [14], “Agonist”; in assay [15], 0.02; in assay [16] it was 0.006.
In [6], `CS(=O)(=O)N1CCOc2ccc(NC3=NCCN3)cc21.I` gave an AD50 of more than 0.3 mg/kg. In assay [7], this compound yielded an ED40 of 0.0273 mg/kg. Moreover, the Potency is 0.22 in assay [1], 0.0005 in assay [10], 0 in [2] and “Agonist” in assay [4]. Also, in [8], the Inhibition is 70%.
Regarding `c1ccc(CN2CCOc3cc(NC4=NCCN4)ccc32)cc1`, the Potency in assay [1] is 0.02; in assay [10] it was 0.001; in assay [2], 0; in assay [4] it was “Agonist”.
`Brc1c(NC2=NCCN2)ccc2nccnc12` [BRIMONIDINE] had an ED40 in assay [7] of 0.0033 mg/kg. For the same compound, the Inhibition in assay [8] was 100%.
As for `Clc1cccc(Cl)c1NC1=NCCN1`, the Potency entry in assay [18] is “Agonist”; in assay [14] it was “Agonist”; in assay [15], 0.8; in assay [16] it was 0.49.
For `c1cc2c(cc1NC1=NCCN1)OCCO2`, the Potency was 1.5 in [19], “Agonist” in assay [20], “Agonist” in [14] and 0.01 in assay [15].
Turning to `c1cc2c(cc1NC1=NCCN1)OCO2`, the Potency in [1] stood at 0.03; in assay [10], 0.003; in assay [2], 0; in [12], 0.025.
Compound `CC(=O)N1CCOc2ccc(NC3=NCCN3)cc21.I` displayed an AD50 in [6] of more than 0.2 mg/kg. For the same compound, the ED40 in assay [7] was 0.0179 mg/kg. The Potency in [1] is 0.1; in assay [10], 0.0006; in assay [2], 0; in assay [4], “Agonist”. The compound further had an Inhibition in assay [8] of 69%.
